Measurements reported in US9682126B2, “Postprandial gastrokinetic agent” (ZERIA PHARMACEUTICAL CO., LTD., priority 2013, dated 2017).

Experiments:
[1] = test system: Suncus murinus; experiment: Postprandial motility by co-administration of ghrelin and motilin, ΔMI (Example 3); type: in vivo
Experimental: Each of Suncus motilin (Scrum Inc., Tokyo, Japan) and human ghrelin (Asubio Pharma Co., Ltd., Hyogo, Japan) was dissolved in PBS containing 0.1% bovine serum albumin.
Suncus murinus (male, outbred KAT strain, 7 to 39 weeks old, 56 to 91 g) was used for the experiment. The Each animal was bred in a plastic cage provided with an empty can as a nest box under the following conditions: temperature at 23±2° C., illumination between 8:00 and 20:00, and free intake of commercial trout feed (SP, Nippon Formula Feed Mfg Co., Ltd., Yokohama, Japan).
After 3 hours of fasting, Suncus murinus was anesthetized by an intraperitoneal injection of pentobarbital sodium (50 mg/kg). Through a midline incision, the stomach was exposed outside the body, and a force transducer was fixed via suture in the circular muscle direction of the body of stomach. The wire extending from the force transducer was inserted through the abdominal wall, passed under the skin, and exposed at the back of the neck.
An intravenous catheter was inserted in the right jugular, and extracorporeally fixed to the back. The catheter was filled with heparinized saline (100 units/mL) to prevent clotting.
Each of the operated Suncus murinus was allowed to recover for several days.
Drug administration and measurement of gastric motility were performed in the conscious, free-moving state without anesthesia.
2 g of feed was given to each Suncus murinus fastened (for 8 to 10 hours) for 10 minutes. After the intake of feed for 10 minutes, ghrelin (50, 1,000, or 3,000 ng/kg), motilin (300, 500, 1,000, or 3,000 ng/kg), or a mixed solution of ghrelin (15 or 50 ng/kg) and motilin (100, 200, or 300 ng/kg) was intravenously administered through a jugular vein catheter rapidly.
Amplified analog signals were converted into digital signals by an analog-to-digital converter (ADC-20, Pico Technology Ltd, St Neots, UK), and the digital signals were recorded on a computer.
Phase III contractions of MMC in conscious Suncus murinus were defined on the basis of those in dogs and humans (that is, clustered contractions with an amplitude of 8 g or more that lasts for 5 minutes or more).
Gastric motility was quantitated using a motility index (ΔMI). A motility index (ΔMI) based on a drug was calculated using the following equation. ΔMI (%)=(A−C)/B×100 A: AUC of contractions for 10 minutes during which the drug was administered B: AUC of 10-minute spontaneous phase III contractions appeared before administration of the drug C: (AUC of contractions appeared for 5 minutes between 5 and 10 minutes after the intake of feed)×2 (2) Results (FIG. 9) A. Action of Ghrelin Alone

[2] = test system: Suncus murinus; experiment: Gastric motility in interdigestive period, sham-operated vs vagotomized (Example 2); type: in vivo; details: motilin 50 ng/kg/min iv over 10 minutes
Experimental: Each of Suncus motilin (Scrum Inc., Tokyo, Japan) and human ghrelin (Asubio Pharma Co., Ltd., Hyogo, Japan) were dissolved in PBS containing 0.1% bovine serum albumin. Suncus murinus (male, outbred KAT strain, 7 to 15 weeks old, 60 to 100 g) was used for the experiment. Each animal was bred in a plastic cage provided with an empty can as a nest box under the following conditions: temperature at 23±2° C., illumination between 8:00 and 20:00, and free intake of commercial trout feed (SP, Nippon Formula Feed Mfg Co., Ltd., Yokohama, Japan). After 3 hours of fasting, Suncus murinus was anesthetized by an intraperitoneal injection of pentobarbital sodium (50 mg/kg). Through a midline incision, the stomach was exposed outside the body, and a force transducer was fixed via suture in the circular muscle direction of the body of stomach. The wire extending from the force transducer was inserted through the abdominal wall, passed under the skin, and exposed at the back of the neck. Thereafter, truncal vagotomy was performed. A lower portion of the esophagus was exposed, both branches of the vagus nerve were isolated, and about 3 mm of the vagus nerve was excised above the hepatic branch and the celiac branch. For sham-operated Suncus murinus, the vagus nerve was exposed, but not excised. An intravenous catheter was inserted in the right jugular, and extracorporeally fixed to the back. The catheter was filled with heparinized saline (100 units/mL) to prevent clotting. From 2 days after the operation, the gastric motility was recorded. Administration of motilin was initiated 10 minutes after completion of spontaneous phase III. Synthesized suncus motilin was continuously injected at 50 ng/kg/min over 10 minutes, and the continuously injected amount was 50 μL/100 g BW/min. Administration of ghrelin was initiated 10 minutes after completion of spontaneous phase II. […] Amplified analog signals were converted into digital signals by an analog-to-digital converter (ADC-20, Pico Technology Ltd, St Neots, UK), and the digital signals were recorded on a computer. Phase III contractions of MMC in conscious Suncus murinus were defined on the basis of those in dogs and humans (that is, clustered contractions with an amplitude of 8 g or more that lasts for 5 minutes or more). Gastric motility was quantitated using a motility index (MI). A motility index (MI) based on a drug was calculated using the following equation. MI (%)=A/B×100 A: AUC of contractions for 10 minutes during which the drug was administered B: […] Statistical analysis After ANOVA, Student's t test was performed.

[3] = motilin 300 ng/kg iv after feed intake
[4] = motilin 500 ng/kg iv after feed intake
[5] = motilin 1,000 ng/kg iv after feed intake
[6] = motilin 3,000 ng/kg iv after feed intake

## CC[C@H](C)[C@H](NC(=O)[C@@H]1CCCN1C(=O)[C@@H](NC(=O)[C@@H](N)Cc1ccccc1)C(C)C)C(=O)N[C@@H](Cc1ccccc1)C(=O)N[C@H](C(=O)N[C@@H](Cc1ccc(O)cc1)C(=O)NCC(=O)N[C@@H](CCC(=O)O)C(=O)N[C@@H](CC(C)C)C(=O)N[C@@H](CCC(N)=O)C(=O)N[C@@H](CCCNC(=N)N)C(=O)N[C@@H](CCSC)C(=O)N[C@@H](CCC(N)=O)C(=O)N[C@@H](CCC(=O)O)C(=O)N[C@@H](CCCCN)C(=O)N[C@@H](CCC(=O)O)C(=O)N[C@@H](CCCNC(=N)N)C(=O)N[C@@H](CC(N)=O)C(=O)N[C@@H](CCCCN)C(=O)NCC(=O)N[C@@H](CCC(N)=O)C(=O)O)[C@@H](C)O [motilin]
[1]; [3]
  Motility Index (ΔMI): About 4.9%
  contractions of the body of the stomach: did not induce contractions of the body of the stomach
[1]; [4]
  Motility Index (ΔMI): About 6.8%
  contractions of the body of the stomach: did not induce contractions of the body of the stomach
[1]; [5]
  Motility Index (ΔMI): About 49.5%
  phase III-like contractions: induced phase III-like contractions
[1]; [6]
  Motility Index (ΔMI): about 48.3%
  phase III-like contractions: induced phase III-like contractions
[2]; both sham-operated and vagotomized, 10 minutes after spontaneous phase III
  motilin-induced phase III-like contractions: phase III-like contractions were observed
[2]; phase I
  contraction duration due to motilin, sham-operated vs vagotomized: a significant difference was not observed
  motility index (MI) during administration of motilin, sham-operated vs vagotomized: a significant difference was not observed
